Experiments:
[1] = system: Rabbit Reticulocyte Lysate; test: inhibition of eukaryotic in vitro translation (firefly luciferase); format: biochemical; conditions: 30 µM compound
Description: The next step was to test the new CAM-Cn-TPP compounds for their ability to inhibit the synthesis of the firefly luciferase reporter in vitro in a cell-free transcription-translation system based on an E. coli S30 extract.
The inhibition of eukaryotic translation was measured in Rabbit Reticulocyte Lysate (Promega) according to the manufacturer’s protocol. The reactions were programmed with 100 ng of Fluc mRNA and were carried out in 5 μL aliquots at 37 °C for 30 min. The activity of the in vitro synthesized luciferase was assessed using 5 μL of the substrate from the Steady-Glo Luciferase Assay System (Promega).

B. subtilis cells = test: membrane potential by DiS-C3-(5) fluorescence; format: cell-based, Bacillus subtilis
Source text: Thus, we further examined the effect of CAM-Cn-TPP on the bacterial membrane potential of B. subtilis. In particular, the membrane potential of B. subtilis can be estimated from the fluorescence of the potential-sensitive dye, DiS-C3-(5), by measuring the changing fluorescence. The potential-dependent accumulation of the dye inside the bacterial cell causes quenching and leads to a decrease in fluorescence. Under the influence of substances that reduce the membrane potential, the dye is released and the fluorescence increases. […] Therefore, the action of CAM-Cn-TPP may have a double effect on bacterial cells and be based on the depolarization of the bacterial membrane by analogy with the mechanism of action of Cn-TPP [17].
The membrane potential of B. subtilis was estimated by measuring the fluorescence of the potential-dependent probe, DiS-C3-(5). B. subtilis from the overnight culture were seeded into a fresh LB medium, followed by growth for […], until reaching the optical density of 0.8 at 600 nm. Then, the bacteria were diluted 20-fold in a buffer containing 100 mM of KCl and 10 mM of Tris, pH 7.4. The fluorescence was measured at 670 nm (excitation at 630 nm) using a Fluorat-02-Panorama fluorimeter.

[2] = system: MDA-MB-231 and BT-549 TNBC-sensitive and chemoresistant cells; test: cancer cell proliferation / viability assay (MTT); format: cell-based; conditions: 3 days treatment
Source text: We recently provided in vivo [67] and in vitro [68] evidence that certain bactericidal antibiotics suppress tumor growth by inducing mitochondrial dysfunction. […] These cells differ from the corresponding parental cells and display a different response to the same microenvironmental stimuli, allowing them to reduce their proliferating rate and survive chemotherapeutic treatment. Here, we tested the abovementioned CAM-TPP derivatives on chemoresistant triple negative breast cancer (TNBC) cell models, as well as on corresponding CSC-like spheroid cells. We created several relevant models based on TNBC cell lines, particularly MDA-MB-231 and BT-549, to determine their resistance to cyclophosphamide. To create CSC-like cells, parental cells were resuspended in nonadherent conditions to form tumorspheres.
The MDA-MB-231 (RRID: CVCL_0062) and BT-549 (RRID: CVCL_1092) cell lines were purchased from ATCC and cultured in DMEM/F12 (Gibco, Life Technologies, 31330-038) supplemented with 10% FBS, 1% Pen-Strep, 1% Sodium Pyruvate, and 1% L-glutamine. Chemoresistant cell lines were established with continuous treatment for 6 months with the anticancer therapeutic agent, cyclophosphamide (Rcyclo), as previously described. These cell lines were authenticated using short tandem repeat (STR) profiling within the last three years. […] The relative numbers of tumourspheres per well were counted manually. […]
The survival assay was performed essentially as described earlier. […] The absorbance was measured at 570 nm in Bio Spec 1601, Shimadzu spectrometer. […] The results were expressed as the means ± SEM. The data were analyzed using the GraphPad Prism 7 PRIZM computer software under the license of the Statistical Department (Vall’ d Hebron Hospital, Barcelona, Spain).

[3] = system: CSC-like TNBC cells (MDA-MB-231 and BT-549, sensitive and chemoresistant); test: tumoursphere formation and viability of CSC-like cells; format: cell-based; conditions: for survival of CSCs: CSCs from parental and resistant TNBC cell lines; for spheroid formation: non-adherent conditions, 5 days
Source text: Several TPP-containing compounds have been proposed for the elimination of CSCs by the Lisanti group. In the current work, we studied the effect of CAM-TPP derivatives on CSC-like TNBC cell models.
The MDA-MB-231 (RRID: CVCL_0062) and BT-549 (RRID: CVCL_1092) cell lines were purchased from ATCC and cultured in DMEM/F12 (Gibco, Life Technologies, 31330-038) supplemented with 10% FBS, 1% Pen-Strep, 1% Sodium Pyruvate, and 1% L-glutamine. Chemoresistant cell lines were established with continuous treatment for 6 months with the anticancer therapeutic agent, cyclophosphamide (Rcyclo), as previously described. These cell lines were authenticated using short tandem repeat (STR) profiling within the last three years. To obtain CSC-like cells, a single cell suspension was prepared using enzymatic disaggregation (1× Trypsin-EDTA, Gibco, 25300062), and the cells were plated at a density of 10.000–12.000 cells per ml in a Cancer Stem Cell medium (C-28070, PromoCell, Heidelberg, Germany) in poly-2-hydroxyethyl methacrylate (Poly-HEMA, Santa Cruz Biotechnology, Dallas, TX, USA, sc-253284)-coated plates. […] The cells were […] with corresponding compounds or DMSO (control), followed by the abovementioned procedure of tumoursphere formation. The relative numbers of tumourspheres per well were counted manually. The experiments were performed independently at least 2 times, with several replicates.
The survival assay was performed essentially as described earlier. In short, cells were seeded into a 96-well plate, followed by treatment with increasing concentrations of the corresponding CAM-TPP derivatives for 3 days. 3-(4,5-dimethylthiazol-2-yl)-2,5-diphenyltetrazolium bromide (0.5 mg/mL MTT; Sigma-Aldrich) dissolved in media was added to each well. Following incubation for 2 h, the supernatant was carefully removed from the wells, and 100 µL of a DMSO:ethanol mix (1:1) was added to each well, followed by shaking for 10 min. The absorbance was measured at 570 nm in Bio Spec 1601, Shimadzu spectrometer. The OD570 of the DMSO solution in each well was considered to be proportional to the number of cells. The OD570 of the control (treatment without supplement) was considered to be 100%. The results were expressed as the means ± SEM. The data were analyzed using the GraphPad Prism 7 PRIZM computer software under the license of the Statistical Department (Vall’ d Hebron Hospital, Barcelona, Spain).

SMILES | effect on eukaryotic in vitro translation [1] | effect on membrane potential (B. subtilis cells; 10 µM) | effect on membrane potential (B. subtilis cells; submicromolar concentrations) | effect on proliferation of TNBC cell lines [2] | survival of CSCs [3] | spheroid formation [3]
O=C(CCCCCCCCCC[P+](c1ccccc1)(c1ccccc1)c1ccccc1)N[C@H](CO)[C@H](O)c1ccc([N+](=O)[O-])cc1 [CAM-C10-TPP, (N-{[(1R,2R)-1,3-dihydroxy-1-(4-nitrophenyl)propan-2-yl]amino}-11-oxoundecyl)(triphenyl)phosphonium bromide] | had no effect on eukaryotic in vitro translation | caused a rapid drop in the membrane potential to the level observed with the channel-forming antibiotic gramicidin A | caused a decrease in the membrane potential of B. subtilis on a minute time scale | significantly reduced the proliferation of TNBC cell lines | reduced the survival of CSCs formed from parental and resistant TNBC cell lines | significant decrease in spheroid formation
O=C(CCCCCCCCCC[P+](c1ccccc1)(c1ccccc1)c1ccccc1)NCCCC(=O)N[C@H](CO)[C@H](O)c1ccc([N+](=O)[O-])cc1 [CAM-C14-TPP, N-[(1R,2R)-1,3-dihydroxy-1-(4-nitrophenyl)propan-2-yl]-4-(triphenyl)phosphoniumundecanamidobutamide bromide] | had no effect on eukaryotic in vitro translation | caused a rapid drop in the membrane potential to the level observed with the channel-forming antibiotic gramicidin A | caused a decrease in the membrane potential of B. subtilis on a minute time scale | significantly reduced the proliferation of TNBC cell lines | reduced the survival of CSCs formed from parental and resistant TNBC cell lines | significant decrease in spheroid formation

From article PMC8145938, “Triphenilphosphonium Analogs of Chloramphenicol as Dual-Acting Antimicrobial and Antiproliferating Agents” (Antibiotics, 2021)
